Experimental data from patent US10358434B2, “2-(3-pyridinyl)-1H-benzimidazole derivative compound and medicament containing same” (NIHON MEDI-PHYSICS CO., LTD., priority 2014, dated 2019).

Assays:
[1] = system: human adrenal gland section expressing aldosterone-producing adenoma; experiment: In vitro autoradiography using human adrenal adenoma; format: binding
How it was run: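 Autoradiography readout: PSL in equal-sized ROIs over adenoma (B2) and normal adrenal cortex (B1), expressed as B2/B1 and decay-corrected using half-life, applied activity and plate contact time. Tissue was surgically excised human adrenal, frozen and cut at 7 μm, incubated 10 min with 5-33 kBq/mL tracer in BSA-containing PBS, then imaged after 16-20 h exposure.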

[2] = In vivo kinetics experiment (radioactivity distribution); design: species or system Wistar male rat; conditions: rat; for Adrenal gland/blood ratio of radioactivity accumulation / Adrenal gland/fat ratio of radioactivity accumulation / Adrenal gland/kidney ratio of radioactivity accumulation / Adrenal gland/liver ratio of radioactivity accumulation / Adrenal gland/muscle ratio of radioactivity accumulation / Adrenal gland/small intestine ratio of radioactivity accumulation / Radioactivity distribution Adrenal gland / Radioactivity distribution Bladder (including urine) / Radioactivity distribution Blood / Radioactivity distribution Fat / Radioactivity distribution Heart / Radioactivity distribution Kidney / Radioactivity distribution Large intestine / Radioactivity distribution Liver / Radioactivity distribution Lung / Radioactivity distribution Muscle (lower limbs) / Radioactivity distribution Remaining whole body / Radioactivity distribution Small intestine / Radioactivity distribution Spleen / Radioactivity distribution Stomach / Radioactivity distribution Testis / Radioactivity distribution Thyroid gland / Radioactivity distribution Whole brain: caudal vein
How it was run: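 Tissue radioactivity (% ID/g) and adrenal-to-blood, liver, kidney, small intestine, muscle and fat ratios determined at 10, 30 and 60 min post-dose. Tracers (approximately 1 to 3.7 MBq, saline with 1 w/v % ascorbic acid) injected i.v. into caudal vein of anesthetized 9-week male Wistar rats; organs excised, weighed, counted.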

[3] = Plasma stability evaluation (TLC analysis); format: in vitro ADME; conditions: 37° C., 60 minutes
Method: Evaluation was made using a heparin-treated normal human plasma pool (Kohjin Bio Co., Ltd.). Compounds [^18F] 100, [^18F] 200, [^123I] 400, [^18F] 500, and [^123I] 601 to 610 obtained by the methods shown in Examples 2, 4, 7, 9, 11, 13, 15, 17, 19, 21, 23, 25, 27, and 29 were each added to the aforementioned human plasma (5 mL), and the obtained mixture was then incubated at 37° C. for 60 minutes. Thereafter, the mixture was centrifuged with addition of methanol, so that a deproteinization treatment was carried out. Thereafter, stability was evaluated by TLC analysis. As TLC analysis conditions, the TLC analysis conditions applied upon the above described synthesis of each compound were applied.

FCCn1c(-c2cncc(Cn3ccnc3)c2)nc2cc(F)c([123I])cc21 [[^123I] 400, 5-Fluoro-1-(2-fluoroethyl)-2-[5-(imidazol-1-ylmethyl)pyridin-3-yl]-6-[^123I]iodobenzimidazole]
accumulation of radioactivity in adrenal gland section (autoradiogram) ([1]; FIGS. 18 to 31): accumulation of radioactivity was selectively observed in a region in which aldosterone-producing adenoma had been pathologically observed | B2/B1 accumulation ratio ([1]; section of FIG. 17(a)): 2.89 | B2 (PSL value, aldosterone-producing adenoma) ([1]; section of FIG. 17(a), site 71a): 4611 | B1 (PSL value, normal adrenal cortex) ([1]; section of FIG. 17(a), site 72a): 1596 | accumulation of radioactivity in adrenal gland vs blood and peripheral tissues ([2]; Tables 9 to 22): high accumulation of radioactivity in adrenal gland was observed, in comparison to in blood and peripheral tissues | Adrenal gland/blood ratio of radioactivity accumulation ([2]; 10 min after administration): 28.34 | Adrenal gland/fat ratio of radioactivity accumulation ([2]; 10 min after administration): 89.23 | Adrenal gland/kidney ratio of radioactivity accumulation ([2]; 10 min after administration): 5.85 | Adrenal gland/liver ratio of radioactivity accumulation ([2]; 10 min after administration): 3.02 | Adrenal gland/muscle ratio of radioactivity accumulation ([2]; 10 min after administration): 54.21 | Adrenal gland/small intestine ratio of radioactivity accumulation ([2]; 10 min after administration): 6.95 | Radioactivity distribution Adrenal gland ([2]; 10 min after administration): 9.09 % ID/g | Radioactivity distribution Bladder (including urine) ([2]; 10 min after administration): 0.32 % ID/g | Radioactivity distribution Blood ([2]; 10 min after administration): 0.32 % ID/g | Radioactivity distribution Fat ([2]; 10 min after administration): 0.10 % ID/g | Radioactivity distribution Heart ([2]; 10 min after administration): 0.63 % ID/g | Radioactivity distribution Kidney ([2]; 10 min after administration): 1.54 % ID/g | Radioactivity distribution Large intestine ([2]; 10 min after administration): 0.19 % ID/g | Radioactivity distribution Liver ([2]; 10 min after administration): 2.98 % ID/g | Radioactivity distribution Lung ([2]; 10 min after administration): 1.06 % ID/g | Radioactivity distribution Muscle (lower limbs) ([2]; 10 min after administration): 0.17 % ID/g | Radioactivity distribution Remaining whole body ([2]; 10 min after administration): 0.27 % ID/g | Radioactivity distribution Small intestine ([2]; 10 min after administration): 1.30 % ID/g | Radioactivity distribution Spleen ([2]; 10 min after administration): 5.26 % ID/g | Radioactivity distribution Stomach ([2]; 10 min after administration): 1.03 % ID/g | Radioactivity distribution Testis ([2]; 10 min after administration): 0.07 % ID/g | Radioactivity distribution Thyroid gland ([2]; 10 min after administration): 3.54 % ID/g | Radioactivity distribution Whole brain ([2]; 10 min after administration): 0.02 % ID/g | Adrenal gland/blood ratio of radioactivity accumulation ([2]; 30 min after administration): 40.26 | Adrenal gland/fat ratio of radioactivity accumulation ([2]; 30 min after administration): 147.73 | Adrenal gland/kidney ratio of radioactivity accumulation ([2]; 30 min after administration): 17.90 | Adrenal gland/liver ratio of radioactivity accumulation ([2]; 30 min after administration): 13.82 | Adrenal gland/muscle ratio of radioactivity accumulation ([2]; 30 min after administration): 110.91 | Adrenal gland/small intestine ratio of radioactivity accumulation ([2]; 30 min after administration): 9.24 | Radioactivity distribution Adrenal gland ([2]; 30 min after administration): 16.93 % ID/g | Radioactivity distribution Bladder (including urine) ([2]; 30 min after administration): 1.35 % ID/g | Radioactivity distribution Blood ([2]; 30 min after administration): 0.43 % ID/g | Radioactivity distribution Fat ([2]; 30 min after administration): 0.12 % ID/g | Radioactivity distribution Heart ([2]; 30 min after administration): 0.49 % ID/g | Radioactivity distribution Kidney ([2]; 30 min after administration): 0.95 % ID/g | Radioactivity distribution Large intestine ([2]; 30 min after administration): 0.19 % ID/g | Radioactivity distribution Liver ([2]; 30 min after administration): 1.24 % ID/g | Radioactivity distribution Lung ([2]; 30 min after administration): 0.76 % ID/g | Radioactivity distribution Muscle (lower limbs) ([2]; 30 min after administration): 0.15 % ID/g | Radioactivity distribution Remaining whole body ([2]; 30 min after administration): 0.31 % ID/g | Radioactivity distribution Small intestine ([2]; 30 min after administration): 1.83 % ID/g | Radioactivity distribution Spleen ([2]; 30 min after administration): 5.44 % ID/g | Radioactivity distribution Stomach ([2]; 30 min after administration): 2.24 % ID/g | Radioactivity distribution Testis ([2]; 30 min after administration): 0.12 % ID/g | Radioactivity distribution Thyroid gland ([2]; 30 min after administration): 9.97 % ID/g | Radioactivity distribution Whole brain ([2]; 30 min after administration): 0.02 % ID/g | Adrenal gland/blood ratio of radioactivity accumulation ([2]; 60 min after administration): 29.41 ± 3.13 | Adrenal gland/fat ratio of radioactivity accumulation ([2]; 60 min after administration): 105.17 ± 28.98 | Adrenal gland/kidney ratio of radioactivity accumulation ([2]; 60 min after administration): 18.87 ± 3.12 | Adrenal gland/liver ratio of radioactivity accumulation ([2]; 60 min after administration): 16.66 ± 3.13 | Adrenal gland/muscle ratio of radioactivity accumulation ([2]; 60 min after administration): 95.38 ± 22.07 | Adrenal gland/small intestine ratio of radioactivity accumulation ([2]; 60 min after administration): 6.64 ± 2.31 | Radioactivity distribution Adrenal gland ([2]; 60 min after administration): 11.65 ± 1.54 % ID/g | Radioactivity distribution Bladder (including urine) ([2]; 60 min after administration): 1.27 ± 0.07 % ID/g | Radioactivity distribution Blood ([2]; 60 min after administration): 0.40 ± 0.01 % ID/g | Radioactivity distribution Fat ([2]; 60 min after administration): 0.11 ± 0.02 % ID/g | Radioactivity distribution Heart ([2]; 60 min after administration): 0.35 ± 0.03 % ID/g | Radioactivity distribution Kidney ([2]; 60 min after administration): 0.62 ± 0.08 % ID/g | Radioactivity distribution Large intestine ([2]; 60 min after administration): 0.43 ± 0.19 % ID/g | Radioactivity distribution Liver ([2]; 60 min after administration): 0.70 ± 0.05 % ID/g | Radioactivity distribution Lung ([2]; 60 min after administration): 0.60 ± 0.03 % ID/g | Radioactivity distribution Muscle (lower limbs) ([2]; 60 min after administration): 0.12 ± 0.02 % ID/g | Radioactivity distribution Remaining whole body ([2]; 60 min after administration): 0.33 ± 0.02 % ID/g | Radioactivity distribution Small intestine ([2]; 60 min after administration): 1.85 ± 0.44 % ID/g | Radioactivity distribution Spleen ([2]; 60 min after administration): 5.27 ± 0.89 % ID/g | Radioactivity distribution Stomach ([2]; 60 min after administration): 4.35 ± 0.25 % ID/g | Radioactivity distribution Testis ([2]; 60 min after administration): 0.15 ± 0.01 % ID/g | Radioactivity distribution Thyroid gland ([2]; 60 min after administration): 19.76 ± 1.03 % ID/g | Radioactivity distribution Whole brain ([2]; 60 min after administration): 0.02 ± 0.00 % ID/g | stability in human plasma [3]: hardly metabolized and decomposed in the plasma | Radiochemical purity after incubation in human plasma ([3]; TLC analysis): 88%
